{"source": "patent US20240426776A1", "about": "“RAPID DIFFERENTIATION OF ANTIBIOTIC-SUSCEPTIBLE AND -RESISTANT BACTERIA THROUGH MEDIATED EXTRACELLULAR ELECTRON TRANSFER” (priority 2021, published 2024)", "key": {"[1]": {"system": "Acinetobacter baumannii (strains 35, 78, 83, and 102)", "assay": "Microdilution antibiotic susceptibility assay (MIC, CLSI guidelines)", "type": "cell-based", "conditions": "for MIC: Acinetobacter baumannii, MH media, 16-18 h, 37° C., read-out: estimated minimum inhibitory concentration from this study", "experimental": "(§1) Testing for S. aureus susceptibility to oxacillin differed with incubation at 30° C. for 18-24 h in MH media supplemented with 2% NaCl.\n(§2) Values listed in Table 2 below include the estimated minimum inhibitory concentration from this study (μg/mL), the determination of(S) sensitive or (R) resistant microbes according to CLSI criteria, and the CLSI guidelines (μg/mL) for the species being tested. Empty cells were not evaluated."}, "[2]": {"system": "Escherichia coli (strains 61 and 77)", "assay": "Microdilution antibiotic susceptibility assay (MIC, CLSI guidelines)", "type": "cell-based", "conditions": "for MIC: Escherichia coli, MH media, 16-18 h, 37° C., read-out: estimated minimum inhibitory concentration from this study", "experimental": "as §1, §2"}, "[3]": {"system": "Acinetobacter baumannii (strains 35, 78, 83, and 102)", "assay": "READAS electrochemical current response with PMS mediator (ASIn)", "type": "cell-based", "conditions": "for ASIn (antibiotic susceptibility index), single replicates: ASI2, 15 μM PMS, 0.1 OD600", "experimental": "(§3) For initial quality control, cyclic voltammetry scan was recorded from 0.5 V to −0.5 V then back to 0.5 V using the potentiostat 13 configuration. The potentiostat controls the working electrode voltage relative to the reference electrode.\n(§4) For antibiotic susceptibility experiments, the working electrode 6 was controlled at 0 VAg/AgCl. The current can also be measured and analyzed for determining resistance/susceptibility of pathogens to drugs (e.g., antibiotics) using other devices such as a multiplexer or any interface instrument that can receive one or more data inputs and forward it to an output for analysis and feedback. In particular, such one or more data inputs can be directed to a processor, signal processor, computer-based system, etc. and thereafter/correspondingly any such interface instrument can receive instructions from, such processing instruments as better detailed in the description for the embodiment of FIG. 14 below. It is also to be noted that any induced currents undergo a decision methodology that can be interpreted by such a configured processor, signal processor, computer-based system, etc. for aiding in the determination of antibiotic susceptibility/resistance, such as, the methodology better detailed in the description of FIG. 6 below.\n(§5) Turning back to the discussion for FIG. 1B but also FIG. 1A, an initial baseline was established in the MH media, PMS, and antibiotic mixture for 50-60 min before inoculating the electrochemical cell with a bacteria cell 2. On placing the bacteria cell 2 (again see FIG. 1A) into the electrochemical cell 10, the bacteria cell 2 undergoes metabolic reactions and generates electrons 4 through metabolic processes, as was generally described above. The electron transfer mediator used herein, e.g., PMS, thereafter, operates as an electron carrier in solution 3, and provides generated electrons 4 to the working electrode 6 (herein was aided by stirring mechanism 21, as shown in FIG. 1B). The working electrode 6 thus accepts the electrons provided by the reduced mediators (PMSr) so as to generate currents and returns the mediator back to its oxidized form ([…]) to keep the monitoring of respiration induced currents if viable.\n(§6) Tests disclosed in the example embodiments herein for the purpose of illustration were conducted with an inoculum of 0.1 OD600. A cell density equating to 0.1 OD600 was determined for each species by serial dilution. Briefly, overnight cultures were adjusted to an OD600 of 0.1 and then serially diluted (10^0 to 10^−11) in a multi-well plate before transferring 10 μL of each dilution to separate TSA plates and grown overnight for 16-18 h. The colony forming units per mL (CFU/mL) were quantified using a drop plate method as known to those skilled in the art. Each measurement was replicated at least four times.\n(§7) For performing example experimental tests disclosed in the embodiments herein for further reduction to practice, an overnight culture of the bacteria utilized was prepared. Such a culture was prepared by transferring, for example, two colonies from an agar streak plate into 8-ml MH broth and cultured overnight in an air incubator (37° C.) rotating at 120 rpm for 16-18 h. A 5-ml aliquot of culture was adjusted to 0.5 OD600 with fresh MH media and then centrifuged at 6000 rpm (4185×g) for 8 min and the supernatant decanted. The pellet was then resuspended in 5-mL of 30° C. (S. aureus experiments) or 37° C. (all others) MH media. After resuspension, 2 mL of the culture was used to verify optical density. Finally, 500 μL of the culture was inoculated to the electrochemical cuvettes by pipette through the cap inoculation port (2.5-ml final volume in the cuvette).\nIt is to be noted that a CLSI resistance breakpoint concentration is a defined concentration of a susceptible antibiotic that treats the bacteria. […]"}, "[4]": {"system": "Escherichia coli (strains 61 and 77)", "assay": "READAS electrochemical current response with PMS mediator (ASIn)", "type": "cell-based", "conditions": "for ASIn (antibiotic susceptibility index), single replicates: ASI2, 15 μM PMS, 0.1 OD600", "experimental": "as §3, §4, §5, §6, §7\nThe magnitude of the current response was defined as the current magnitude at the inflection point between the exponential growth and the saturated current response."}, "[5]": {"system": "Staphylococcus aureus (strains 29213 and 43300)", "assay": "READAS electrochemical current response with PMS mediator (ASIn)", "type": "cell-based", "conditions": "for ASIn (antibiotic susceptibility index), single replicates: tobramycin 10× breakpoint (160 μg/mL), ASI10, 15 μM PMS, 0.1 OD600", "experimental": "Each measurement was replicated at least four times.\n(S. aureus experiments) or 37° C. (all others) MH media.\nThe current responses measured follows a sigmoidal curve structure.\nAs a second example method of operation, the S. aureus strains selected from Table 2 were assessed. Initially, a 2×CLSI resistance breakpoint concentrations for two antibiotics oxacillin (12 μg/mL) and tobramycin (32 μg/mL) were used for the example method of operation. The ASI2<0.4 and it was concluded that the concentration of the antibiotics was insufficient to classify the strains as antibiotic-susceptible or -resistant. S. aureus was then treated with 4×, 6×, 8×, 10×, and 20× the breakpoint concentration of oxacillin and was compared to the control as depicted in FIG. 8A. […] S. aureus was also treated with 4× and 10× the breakpoint concentration of tobramycin and was compared to the control depicted in FIG. 8B. […] The efficacy of antibiotic was proportional to the concentration when a high cell density (1.1×10^8 CFU/mL) was used.\nThe ASIn analysis time for classifying the strains as resistant or susceptible for tobramycin treatment was 33-78 min which was 30 min less than needed for detecting oxacillin susceptibility which required 60-96 min."}, "[6]": {"system": "Acinetobacter baumannii (strains 35, 78, 83, and 102)", "conditions": "cited from earlier work"}, "[7]": {"conditions": "strain 78 (resistant), imipenem 2×CLSI resistance breakpoint"}, "[8]": {"conditions": "strain 102 (susceptible), imipenem 2×CLSI resistance breakpoint"}}, "note": "Values joined by “and” are separate entries in the source; they are usually repeats but may differ in a detail not shown here. Equal values may be shown once. Read-outs that look alike come from different tables or passages of the source."}
{"smiles": "C[C@@H](O)[C@H]1C(=O)N2C(C(=O)O)=C(SCCN=CN)C[C@H]12", "note": "[Imipenem, imipenem]", "values": [{"measurement": "MIC", "setting": "[1]; strain 78", "result": 32, "unit": "µg/mL"}, {"measurement": "MIC", "setting": "[1]; strain 102", "result": 1, "unit": "µg/mL"}, {"measurement": "sensitive or resistant according to CLSI criteria", "setting": "[1]; strain 78", "result": "R"}, {"measurement": "sensitive or resistant according to CLSI criteria", "setting": "[1]; strain 102", "result": "S"}, {"measurement": "MIC", "setting": "[2]; strain 61", "result": 32, "unit": "µg/mL"}, {"measurement": "MIC", "setting": "[2]; strain 77", "result": 0.5, "unit": "µg/mL"}, {"measurement": "sensitive or resistant according to CLSI criteria", "setting": "[2]; strain 61", "result": "R"}, {"measurement": "sensitive or resistant according to CLSI criteria", "setting": "[2]; strain 77", "result": "S"}, {"measurement": "average ASI2 (average±SE)", "setting": "[3]; [7]", "result": "0.02±0.13"}, {"measurement": "ASIn (antibiotic susceptibility index), single replicates", "setting": "[3]; [7]", "result": "0.04 and −0.5 and 0.24 and 0.19 and 0.16"}, {"measurement": "average ASI2 (average±SE)", "setting": "[3]; [8]", "result": "0.47±0.08"}, {"measurement": "ASIn (antibiotic susceptibility index), single replicates", "setting": "[3]; [8]", "result": "0.37 and 0.36 and 0.67 and 0.31 and 0.65"}, {"measurement": "average ASI2 (±SE)", "setting": "[4]; strain 61 (resistant), imipenem 2× (8 μg/mL)", "result": "−0.20±0.45"}, {"measurement": "ASIn (antibiotic susceptibility index), single replicates", "setting": "[4]; strain 61 (resistant), imipenem 2× breakpoint (8 μg/mL)", "result": "0.26 and −1.52 and 0.52 and −0.08"}, {"measurement": "average ASI2 (±SE)", "setting": "[4]; strain 77 (susceptible), imipenem 2× (8 μg/mL)", "result": "0.86±0.11"}, {"measurement": "ASIn (antibiotic susceptibility index), single replicates", "setting": "[4]; strain 77 (susceptible), imipenem 2× breakpoint (8 μg/mL)", "result": "0.98 and 0.97 and 0.96 and 0.54"}]}
{"smiles": "NC[C@H]1O[C@H](O[C@H]2[C@H](O)[C@@H](O[C@H]3O[C@H](CO)[C@@H](O)[C@H](N)[C@H]3O)[C@H](N)C[C@@H]2N)[C@H](N)C[C@@H]1O", "note": "[Tobramycin, tobramycin]", "values": [{"measurement": "MIC", "setting": "[1]; strain 35", "result": 0.5, "unit": "µg/mL"}, {"measurement": "MIC", "setting": "[1]; strain 83", "result": 128, "unit": "µg/mL"}, {"measurement": "sensitive or resistant according to CLSI criteria", "setting": "[1]; strain 35", "result": "S"}, {"measurement": "sensitive or resistant according to CLSI criteria", "setting": "[1]; strain 83", "result": "R"}, {"measurement": "MIC", "setting": "[2]; strain 61", "result": 16, "unit": "µg/mL"}, {"measurement": "MIC", "setting": "[2]; strain 77", "result": 0.5, "unit": "µg/mL"}, {"measurement": "sensitive or resistant according to CLSI criteria", "setting": "[2]; strain 61", "result": "R"}, {"measurement": "sensitive or resistant according to CLSI criteria", "setting": "[2]; strain 77", "result": "S"}, {"measurement": "average ASI2 (average±SE)", "setting": "[3]; strain 35 (susceptible), tobramycin 2×CLSI resistance breakpoint", "result": "0.63±0.13"}, {"measurement": "ASIn (antibiotic susceptibility index), single replicates", "setting": "[3]; strain 35 (susceptible), tobramycin 2×CLSI resistance breakpoint (32 μg/mL)", "result": "0.48 and 1 and 0.4 and 0.64"}, {"measurement": "ASIn (antibiotic susceptibility index), single replicates", "setting": "[3]; strain 35 (susceptible), tobramycin 2×CLSI resistance breakpoint (32 μg/mL), listed as tobramycin", "result": 0.5}, {"measurement": "average ASI2 (average±SE)", "setting": "[3]; strain 83 (resistant), tobramycin 2×CLSI resistance breakpoint", "result": "0.08±0.06"}, {"measurement": "ASIn (antibiotic susceptibility index), single replicates", "setting": "[3]; strain 83 (resistant), tobramycin 2×CLSI resistance breakpoint (32 μg/mL)", "result": "−0.06 and −0.08 and 0.17 and 0.09 and 0.26"}, {"measurement": "ASIn (antibiotic susceptibility index), single replicates", "setting": "[3]; strain 83 (resistant), tobramycin 2×CLSI resistance breakpoint (32 μg/mL), listed as tobramycin", "result": 0.3}, {"measurement": "decrease in current compared to the control", "setting": "[3]; susceptible strain (35), tobramycin 2×CLSI resistance breakpoint, 32 μg/mL, FIG. 4A", "result": 50, "unit": "%"}, {"measurement": "current response with increasing antibiotic concentration", "setting": "[5]; oxacillin 4×, 6×, 8×, 10×, 20× breakpoint (FIG. 8A), tobramycin 4× and 10× (FIG. 8B), […]10^8 CFU/mL", "result": "decreased the current magnitude to ASIn≥0.4 and increased the response time"}, {"measurement": "ASIn (antibiotic susceptibility index), single replicates", "setting": "[5]; strain 29213 (susceptible)", "result": "0.52 and 0.6 and 0.16 and 0.34"}, {"measurement": "average ASI10 (±SE)", "setting": "[5]; strain 43300 (resistant), tobramycin 10× (160 μg/mL)", "result": "−0.10±0.14"}, {"measurement": "ASIn (antibiotic susceptibility index), single replicates", "setting": "[5]; strain 43300 (resistant)", "result": "0.12 and −0.01 and −0.42"}, {"measurement": "average ASI2 (±SE)", "setting": "[4]; strain 61 (resistant), tobramycin 2× (32 μg/mL)", "result": "0.17±0.1"}, {"measurement": "ASIn (antibiotic susceptibility index), single replicates", "setting": "[4]; strain 61 (resistant), tobramycin 2× breakpoint (32 μg/mL)", "result": "0.23 and 0.15 and 0.47 and 0.16 and −0.16"}, {"measurement": "average ASI2 (±SE)", "setting": "[4]; strain 77 (susceptible), tobramycin 2× (32 μg/mL)", "result": "0.62±0.15"}, {"measurement": "ASIn (antibiotic susceptibility index), single replicates", "setting": "[4]; strain 77 (susceptible), tobramycin 2× breakpoint (32 μg/mL)", "result": "0.92 and 0.4 and 0.86 and 0.33"}, {"measurement": "CLSI guidelines (resistance breakpoint) for the species", "setting": "[6]", "result": 16, "unit": "µg/mL"}]}
